“Also recorded” adds a separate entry of the source.
Experiments:
MDA MB 231 cells [1] = assay: Cytotoxicity studies by MTT assay; type: cell-based; details: Homo sapiens, 24 hrs, read-out: GI50 (50% growth inhibition value)
Procedure: (§1) The cells used for the study, human breast adenocarcinoma (MDA-MB-231) and normal human lung fibroblast cells ([…]) were procured from NCCS, Pune, India, and ATCC, VA, USA, respectively. Cells were maintained in standard culture conditions in DMEM supplemented with 10% FBS and 100 units/ml penicillin/streptomycin under 5% CO2 at 37° C. in a humidified incubator. After 2-3 passages, the cells were seeded on cell culture dishes and were used for different experiments.
A 10 mM stock solution of I-8 was prepared in DMSO and diluted with DMEM supplemented with 5% FBS for each experiment so that the DMSO concentration was <0.1% in the treated cells. Paclitaxel at a concentration of 50 nM was used as the positive control.
MTT assay was used for testing the cytotoxicity of NIIST-AC-1 in MDA MB 231 cells. 1×10^4 cells/well were seeded in 96 well culture plates and were treated with different concentrations of NIIST-AC-1 for 24 hrs. The percentage of viable cells were monitored based on the purple colour developed by MTT at 570 nm and from that the concentration of NIIST-AC-1 required for 50% inhibition of the viability was calculated as the GI50 value.

[2] = system: normal human lung fibroblast cells (WI 30); assay: Toxicity in normal fibroblast cells (phase contrast images); type: cell-based; details: normal fibroblast cells (WI30), FIG. 3
Procedure: as §1
Morphological analysis of the cells treated with NIIST-AC-1 at different concentrations were monitored using phase contrast microscope Nikon EclipseTS100 (Nikon Instruments Inc., Melville, NY, USA, Magnification 20×) and SEM (Zeiss EVO 18 Special Edition) at ×2k and ×5k magnification.

MDA MB 231 cells [3] = assay: Phosphatidyl serine translocation by annexin V staining; type: cell-based, human; details: MDA MB 231, annexin V staining, 24 hrs
Procedure: The translocation of phosphatidyl serine to the outer leaflet of plasma membrane during apoptosis was studied by Annexin V-Cy3™ Apoptosis Detection Kit. After treatment with different concentrations of NIIST-AC-1 for 24 hrs, the cells were washed and stained with annexin V for 10 min. After the staining solution was removed, the binding buffer was added and the cells observed under a spinning disc fluorescent microscope (BD Biosciences), and images were taken using the software BD Atto Vision version 1.6.

MDA MB 231 cells [4] = assay: Measurement of intracellular reactive oxygen species (FACS); type: cell-based, human; details: MDA MB 231, CM-H2DCFDA
Procedure: The upregulation of ROS upon treatment with NIIST-AC-1 was analyzed using the fluorescent probe CM-H2DCFDA (Sigma). After treatment, the cells were incubated DMEM containing CM-H2DCFDA at a final concentration of 5 μM at 37° C. for 30 min. The trypsinised cells were then suspended in PBA and analyzed using FACS (BD FACSAria II (BD Biosciences) at fluorescein isothiocyanate (FITC) range (excitation 495 nm, emission 529 nm bandpass filter). The mean fluorescence intensities of different groups were analyzed by BD FACSDiva ver 6.1.3 software and corrected for autofluorescence from unlabeled cells.

[5] = system: proteins in the extrinsic and intrinsic pathway of apoptosis; assay: Protein array for expression of apoptotic proteins; type: cell-based, human; details: MDA MB 231 lysates
Procedure: The expression of various proteins in the extrinsic and intrinsic pathway of apoptosis on treatment with NIIST-AC-1 was analyzed by using antibody pair-based assay, where the 43 targets were captured on a membrane. Lysates of control and treated cells were spotted to the membrane as protein equivalents. Paired biotinylated detector antibodies and streptavidin HRP were used for development using chemiluminescent method. Comparison of the membrane were done using densitometry software.

MDA MB 231 cells [6] = assay: Anoikis assay; type: cell-based, human; details: MDA MB 231, anoikis chamber, 48 hrs
Procedure: The effect of NIIST-AC-1 on anoikis resistance was analyzed using Anoikis Assay Kit by following the manufacturer's protocol. The cells were seeded in ultralow attachment plate 9anoikis chamber) after pretreating with different concentrations of NIIST-AC-1. After 48 hrs, the cells were observed under the phase-contrast microscope (Nikon Eclipse TS100) for observing the attachment and images were captured using NIS-Elements 3.21.00 imaging software. The viability of the cells was also measured by MTT assay.

MDA MB 231 cells [7] = assay: Cell cycle analysis (PI flow cytometry, western blot); type: cell-based, human
Procedure: The distribution of cells in different phases of cell cycle was determined by flow cytometry after staining with propidium iodide. After treatment, the cells were harvested, ethanol fixed and stained with propidium iodide at 25° C. for 30 minutes. The cellular DNA content was measured with BD FACS Fortessa X-20 SORP according to detected signals in FL2 channel (excitation, 493 nm; emission, 636 nm) and data were analyzed with FloJo software, version 9. Approximately 10,000 cells were counted for each analysis, and the distribution of cells in each phase of the cell cycle was saved as histograms. Western blot analysis was done to study the expression profiles of various proteins involved in the cell cycle machinery.

MDA MB 231 cells [8] = assay: Wound healing (scratch wound) assay; type: cell-based, human; details: 24 hr
Procedure: Wound healing assay was performed to understand the antimigration effects of NIIST-AC-1. The confluent monolayers of cells after making the scratch were treated with the test compounds at different concentrations for 24 hr. After the time interval, the wound closure by the migration of the cells was observed under the phase-contrast microscope (Nikon Eclipse TS100), and images were captured using NIS-Elements 3.21.00 imaging software at different time points (0, 24 h) at 4× magnification. The wound area was quantified using ImageJ 1.52p software.

MMP-9 = assay: Gelatin zymography for MMP activity; type: cell-based, human; details: gelatin zymography of spent medium
Procedure: The activity of MMPs in the spent medium from the cell culture was allowed to react with the substrate gelatin impregnated in the SDS-PAGE gel. After electrophoresis, the gel was washed with Triton solution and incubated with activation buffer 50 mM Tris containing 0.2 M NaCl and 5 mM CaCl2) at 37° C. for 18-20 h for reaction to occur. The gel was stained with Coomassie Brilliant Blue solution and after destaining, gelatin cleaved zones by MMPs were observed as white clear zones which were imaged using ChemiDoc™ MP System with IMAGE LAB™ Software (Bio-Rad).

EGFR = EGFR expression studies (immunofluorescence); type: cell-based, human; details: fluorescent images
Procedure: The expression of EGFR after treatment with NIIST-AC-1 was evaluated using indirect immunofluorescence. The cells after treatment were fixed with paraformaldehyde and incubated with primary antibody overnight. After washing the primary antibody, the cells were treated with alexa fluor conjugated secondary antibody for visualization. The cells were counterstained with DAPI for nuclear staining and were observed under a fluorescent microscope (IX83 inverted microscope; Olympus Life Science, cell Sens Dimension ver 3.1 software).

COc1cc(-c2cc(C(=O)NCc3cc(C(F)(F)F)cc(C(F)(F)F)c3)[nH]n2)cc(OC)c1OC [I-8, N-(3,5-bis(trifluoromethyl)benzyl)-3-(3,4,5-trimethoxyphenyl)-1H-pyrazole-5-carboxamide]
GI50 (MDA MB 231 cells [1]): 15.1 µM | cytotoxicity in normal fibroblasts [2]: without having cytotoxicity; also recorded: no toxic | phosphatidyl serine translocation (MDA MB 231 cells [3]): phosphatidyl serine translocation | ROS generation (MDA MB 231 cells [4]): significant generation of ROS | expression of apoptotic proteins (intrinsic and extrinsic pathways) [5]: upregulated the proteins involved in intrinsic and extrinsic pathways | detachment induced cell death (anoikis) (MDA MB 231 cells [6]): induced detachment induced cell death (anoikis) | cell cycle arrest (MDA MB 231 cells [7]; MDA MB 231, PI labelling, FACS): cell cycle arrest at S phase | cell cycle regulatory proteins cyclin B1, cyclin A2 and CDK (MDA MB 231 cells [7]; western blot): downregulated | cell migration (MDA MB 231 cells [8]): cell migration inhibition was evident | MMP-9 activity (MMP-9): reduced | EGFR expression (EGFR): reduction in EGFR expression

Reference: patent US20240376087A1, “PYRAZOLE AMIDE BASED COMPOUNDS AND USES AGAINST BREAST CANCER THEREOF” (COUNCIL OF SCIENTIFIC AND INDUSTRIAL RESEARCH AN INDIAN …, priority 2021, published 2024)
